These results are taken from ChEMBL document CHEMBL1138636, “Potent inhibitors of the HIV-1 protease incorporating cyclic urea P1-P2 scaffold” (Bioorg Med Chem Lett, 2004).

The target of this assay is Human immunodeficiency virus type 1 protease (Human immunodeficiency virus 1, UniProt Q72874). Put plainly: Potency to inhibit HIV-1 protease.
On to `O=C(NC1c2ccccc2C[C@H]1O)[C@H](Cc1ccccc1)C[C@H](O)CN1C(=O)N(Cc2ccccc2)CC1Cc1ccccc1` (stereo not given in full), for which affinity was put at a Ki of 1.2 nM. Take `Cc1cc(CN2CC(Cc3ccccc3)N(C[C@@H](O)C[C@@H](Cc3ccccc3)C(=O)NC3c4ccccc4C[C@H]3O)C2=O)cc(C)c1C` (stereo not given in full): the Ki (as a rule, the equilibrium dissociation constant of an inhibitor or competing ligand from its target) came out at 100 nM. Compound `O=C(NC1c2ccccc2C[C@H]1O)[C@H](Cc1ccccc1)C[C@H](O)CN1C(=O)N(Cc2ccncc2)CC1Cc1ccccc1` (stereo not given in full) came in with a Ki of 190 nM. With `O=C(NC1c2ccccc2C[C@H]1O)[C@H](Cc1ccccc1)C[C@H](O)CN1C(=O)N(Cc2cccnc2)CC1Cc1ccccc1` (stereo not given in full), the Ki is 18 nM.

As for `O=C(NC1c2ccccc2C[C@H]1O)[C@H](Cc1ccccc1)C[C@H](O)CN1C(=O)N(Cc2ccccn2)CC1Cc1ccccc1` (stereo not given in full), the affinity corresponds to a Ki of 41 nM. For `COc1ccc(CN2CC(Cc3ccccc3)N(C[C@@H](O)C[C@@H](Cc3ccccc3)C(=O)NC3c4ccccc4C[C@H]3O)C2=O)cc1` (stereo not given in full), the inhibitory constant (Ki) was found to be 5.6 nM. The figure for `CS(=O)(=O)c1ccc(CN2CC(Cc3ccccc3)N(C[C@@H](O)C[C@@H](Cc3ccccc3)C(=O)NC3c4ccccc4C[C@H]3O)C2=O)cc1` (stereo not given in full) is 300 nM; for `C[C@]1(Cc2ccccc2)C[C@H](Cc2ccccc2)N(C[C@@H](O)C[C@@H](Cc2ccccc2)C(=O)N[C@H]2c3ccccc3C[C@H]2O)C1=O` it is 170 nM; for `O=C(NC1c2ccccc2C[C@H]1O)[C@H](Cc1ccccc1)C[C@H](O)CN1C(=O)N(Cc2cccc(F)c2)CC1Cc1ccccc1` (stereo not given in full) it is 3.2 nM. The figure for `O=C(NC1c2ccccc2C[C@H]1O)[C@H](Cc1ccccc1)C[C@H](O)CN1C(=O)[C@@H](Cc2ccccc2)CC1Cc1ccccc1` (stereo not given in full) is 0.06 nM.
